These results are taken from paper PMC12156367, “Synthesis and Biological Evaluation of Seco-Coumarin/Furoxan Hybrids as Potent Anti-Tumor Agents to Overcome Multidrug Resistance via Multiple Mechanisms” (Molecules, 2025).

Structures are written as SMILES.

Broadly, the IC50 is the concentration that gives 50% inhibition. A low value points to greater potency.

The subject of series [1] is MCF-7/ADR (doxorubicin-resistant human breast cancer cell line). The experiment in a line: In vitro antiproliferative assay (MTT, 48 h), MCF-7/ADR. The series is classed as cell-based. The note with it: for Selectivity Ratio IC50(MCF-7)/ IC50(MCF-7/ADR): collateral sensitivity; for IC50: Homo sapiens, NCI/ADR-RES, MTT, 48 h, mean of three determinations. The text has this:
The MDA-MB-468 cell line was procured from the Cell Bank of the Chinese Academy of Sciences. The MCF-7, MCF-7/ADR, MCF-10A, and MDA-MB-231 cell lines were kindly provided by Professor Xianyi Sha (Fudan University, Shanghai, China). The HUVEC cells were kindly provided by Associate Professor Hulie Zeng (Fudan University, Shanghai, China). The MDA-MB-468, MDA-MB-231, MCF-7, MCF-10A, and HUVEC cells were cultivated in DMEM (Service Biotechnology, China) supplemented with 10% FBS (Capricorn Scientific, Germany) and 1% penicillin-streptomycin (Meilunbio, Dalian, China). For the MCF-7/ADR cells, they were cultured in RPMI-1640 (Service Biotechnology, Wuhan, China), containing 10% FBS and 1% penicillin-streptomycin. Additionally, 500 ng/mL of doxorubicin (Sigma-Aldrich, Saint Louis, MO, USA) was incorporated into the RPMI-1640 culture medium to keep drug resistance. All cell lines were cultured in a humidified incubator at 37 °C with a 5% CO2 atmosphere.
Following harvest during logarithmic growth, cells were plated in 96-well culture plates at an initial density of 5000 cells per well. Incubate the plate overnight at 37 °C to allow the cells to adhere. Following the overnight incubation, introduce the compound at the predetermined concentration into each well, and then return the plate to the incubator for an additional 48 h culture period. After the 48 h treatment, carefully aspirate the drug-containing medium from each well. Subsequently, add 150 μL of 0.5 mg/mL MTT (Beyotime, China) solution to each well. Protect the plate from light and incubate it at 37 °C for 4 h to allow the formation of formazan crystals. Finally, add 150 μL of DMSO (Sinopharm, China) to each well and gently mix to ensure complete dissolution of the formazan crystals. The OD value at 570nm was measured using a microplate reader (Thermo Fisher, Waltham, MA, USA). Cell proliferation inhibition was determined using the following formula:Inhibition (%) = [(ODDMSO − ODcompd.)/(ODDMSO − ODblank)] × 100
GraphPad Prism software 9 was used to calculate the IC50 values. The specific calculation process is as follows: Firstly, we input the experimental data into Prism. The data include the concentrations of the experimental compounds and the corresponding biological response values. For instance, in the cell experiment, we recorded the cell viability values at different drug concentrations. Subsequently, we select the option of “Dose–Response–Nonlinear Regression” in the “Analyze” menu for curve fitting. Generally speaking, we use the model of “[Inhibitor] vs. normalized response—Variable slope”. The Prism software fits the data through the nonlinear least squares method and finds the parameter values that can minimize the difference between the model’s predicted values and the actual data. After completing the curve fitting, the software will directly provide the estimated values and confidence intervals of the IC50 value and other relevant parameters. Meanwhile, it will also offer goodness-of-fit indices, such as the correlation coefficient, to evaluate the quality of the fitting. Through the above method, we can accurately calculate the IC50 value, thereby assessing the intensity of the inhibitory or activating effect of the compound on the biological system.

Series [2] is described as follows: Solubility experiment (HPLC) in water/acetonitrile. The note with it: in water/acetonitrile (table title). The series is classed as physicochemical. Here is the method:
Wavelength: 254 nm; flow rate: 1.0 mL/min; column temperature: 25 °C. Mobile phase: Phase A: water, Phase B: acetonitrile (Table 5).
Compounds were dissolved in chromatographic-grade acetonitrile and diluted to concentrations of 200, 100, 50, 25, 12.5, and 6.25 µg/mL. A standard curve was plotted using the peak area under the curve (AUC) versus concentration. […] The supernatant was filtered through an ultrafiltration membrane and then subjected to HPLC analysis. The solubility of the target compound was determined by substituting the AUC of the test compound into the standard curve. Each measurement was performed in triplicate.

On to `COc1cc(OCCOc2no[n+]([O-])c2S(=O)(=O)c2ccccc2)ccc1C(=O)NCc1ccccc1` [Compound 18a, 4-(2-(4-(benzylcarbamoyl)-3-methoxyphenoxy)ethoxy)-3-(phenylsulfonyl)-1,2,5-oxadiazole 2-oxide], for which the “Selectivity Ratio IC50(MCF-7)/ IC50(MCF-7/ADR)” value in series [1] is recorded as 47.8. Moreover, the Solubility in series [2] is listed as 70.3 ± 6.1%.

Regarding `COc1cc(OCCOc2no[n+]([O-])c2S(=O)(=O)c2ccccc2)ccc1C(=O)NCc1ccc(F)cc1` [Compound 18b, 4-(2-(4-((4-fluorobenzyl)carbamoyl)-3-methoxyphenoxy)ethoxy)-3-(phenylsulfonyl)-1,2,5-oxadiazole 2-oxide], the “Selectivity Ratio IC50(MCF-7)/ IC50(MCF-7/ADR)” value in series [1] came to 101.7. The Solubility in series [2] is on record as 60.9 ± 9.8%.

For the compound `Nc1ccc(CNC(=O)c2ccc(OCCOc3no[n+]([O-])c3S(=O)(=O)c3ccccc3)cc2O)cc1` [Compound 16c, 4-(2-(4-((4-aminobenzyl)carbamoyl)-3-hydroxyphenoxy)ethoxy)-3-(phenylsulfonyl)-1,2,5-oxadiazole 2-oxide], in series [1], the “Selectivity Ratio IC50(MCF-7)/ IC50(MCF-7/ADR)” value came to 95.4. The Solubility in series [2] came to 327 ± 11.6%.

Turning to `COc1ccc(CCC(=O)c2ccc(OCCCOc3no[n+]([O-])c3S(=O)(=O)c3ccccc3)cc2OC)cc1` [Compound 9f, 4-(3-(3-methoxy-4-(3-(4-methoxyphenyl)propanoyl)phenoxy)propoxy)-3-(phenylsulfonyl)-1,2,5-oxadiazole 2-oxide], the “Selectivity Ratio IC50(MCF-7)/ IC50(MCF-7/ADR)” value in series [1] is reported as 943.2. The compound further showed a Solubility in series [2] of 125 ± 9.2%.

For the compound `COc1ccc(/C=C/C(=O)c2ccc(OCCOc3no[n+]([O-])c3S(=O)(=O)c3ccccc3)cc2OC)cc1` [Compound 6c, (E)-4-(2-(3-methoxy-4-(3-(4-methoxyphenyl)acryloyl)phenoxy)ethoxy)-3-(phenylsulfonyl)-1,2,5-oxadiazole 2-oxide], in series [1], the “Selectivity Ratio IC50(MCF-7)/ IC50(MCF-7/ADR)” value turned out to be 44.2. Moreover, the Solubility in series [2] is on record as 37.7 ± 5.2%.

Consider `COc1cccc2c1C(=O)c1c(O)c3c(c(O)c1C2=O)C[C@@](O)(C(=O)CO)C[C@@H]3O[C@H]1C[C@H](N)[C@H](O)[C@H](C)O1` [doxorubicin, reference compound], for which, in series [1], the “Selectivity Ratio IC50(MCF-7)/ IC50(MCF-7/ADR)” value is on record as 0.008.

Take `O=C(NCc1ccc(C(F)(F)F)cc1)c1ccc(OCCOc2no[n+]([O-])c2S(=O)(=O)c2ccccc2)cc1O` [Compound 16d, 4-(2-(3-hydroxy-4-((4-(trifluoromethyl)benzyl)carbamoyl)phenoxy)ethoxy)-3-(phenylsulfonyl)-1,2,5-oxadiazole 2-oxide]: in series [1], the IC50 came out at 10.5 nM and the “Selectivity Ratio IC50(MCF-7)/ IC50(MCF-7/ADR)” value is on record as 257.8. Besides, the Solubility in series [2] is 61.1 ± 2.6%.

For the compound `O=C(NCc1ccc(O)cc1)c1ccc(OCCOc2no[n+]([O-])c2S(=O)(=O)c2ccccc2)cc1O` [Compound 16f, 4-(2-(3-hydroxy-4-((4-hydroxybenzyl)carbamoyl)phenoxy)ethoxy)-3-(phenylsulfonyl)-1,2,5-oxadiazole 2-oxide], the “Selectivity Ratio IC50(MCF-7)/ IC50(MCF-7/ADR)” value in series [1] is given as 64.4. Also, the Solubility in series [2] worked out at 81.0 ± 7.9%.

`O=C(NCc1ccccc1)c1ccc(OCCOc2no[n+]([O-])c2S(=O)(=O)c2ccccc2)cc1O` [Compound 16a, 4-(2-(4-(benzylcarbamoyl)-3-hydroxyphenoxy)ethoxy)-3-(phenylsulfonyl)-1,2,5-oxadiazole 2-oxide]: in series [1], the “Selectivity Ratio IC50(MCF-7)/ IC50(MCF-7/ADR)” value is reported as 7.2. The Solubility in series [2] amounted to 125 ± 7.1%.

Consider `COc1cc(OCCCOc2no[n+]([O-])c2S(=O)(=O)c2ccccc2)ccc1C(=O)CCc1ccc(F)cc1` [Compound 9d, 4-(3-(4-(3-(4-fluorophenyl)propanoyl)-3-methoxyphenoxy)propoxy)-3-(phenylsulfonyl)-1,2,5-oxadiazole 2-oxide], for which the “Selectivity Ratio IC50(MCF-7)/ IC50(MCF-7/ADR)” value in series [1] is 1394.2. The compound further returned a Solubility in series [2] of 117 ± 10.8%.

As for `COc1cc(OCCOc2no[n+]([O-])c2S(=O)(=O)c2ccccc2)ccc1C(=O)CCc1ccccc1` [Compound 9a, 4-(2-(3-methoxy-4-(3-phenylpropanoyl)phenoxy)ethoxy)-3-(phenylsulfonyl)-1,2,5-oxadiazole 2-oxide], the “Selectivity Ratio IC50(MCF-7)/ IC50(MCF-7/ADR)” value in series [1] worked out at 1716.9. In addition, in series [2], the Solubility was 23.5 ± 4.1%.

As for `COc1cc(OCCCOc2no[n+]([O-])c2S(=O)(=O)c2ccccc2)ccc1C(=O)C=Cc1ccccc1` [Compound 6a, 4-(3-(4-cinnamoyl-3-methoxyphenoxy)propoxy)-3-(phenylsulfonyl)-1,2,5-oxadiazole 2-oxide], the “Selectivity Ratio IC50(MCF-7)/ IC50(MCF-7/ADR)” value in series [1] is reported as 432.6. The same compound came in with a Solubility in series [2] of 60.8 ± 7.2%.

With `O=C(NCc1ccc(F)cc1)c1ccc(OCCOc2no[n+]([O-])c2S(=O)(=O)c2ccccc2)cc1O` [Compound 16b, 4-(2-(4-((4-fluorobenzyl)carbamoyl)-3-hydroxyphenoxy)ethoxy)-3-(phenylsulfonyl)-1,2,5-oxadiazole 2-oxide], the “Selectivity Ratio IC50(MCF-7)/ IC50(MCF-7/ADR)” value in series [1] amounted to 27.8. Further, the Solubility in series [2] is on record as 31.6 ± 6.8%.

For the compound `COc1cc(OCCCOc2no[n+]([O-])c2S(=O)(=O)c2ccccc2)ccc1C(=O)/C=C/c1ccc(F)cc1` [Compound 6b, (E)-4-(3-(4-(3-(4-fluorophenyl)acryloyl)-3-methoxyphenoxy)propoxy)-3-(phenylsulfonyl)-1,2,5-oxadiazole 2-oxide], in series [1], the “Selectivity Ratio IC50(MCF-7)/ IC50(MCF-7/ADR)” value is 286.6. This compound showed a Solubility in series [2] of 45.8 ± 3.4%.

For `COc1cc(OCCOc2no[n+]([O-])c2S(=O)(=O)c2ccccc2)ccc1C(=O)NCc1ccc(C#N)cc1` [Compound 18e, 4-(2-(4-((4-cyanobenzyl)carbamoyl)-3-methoxyphenoxy)ethoxy)-3-(phenylsulfonyl)-1,2,5-oxadiazole 2-oxide], in series [1], the IC50 is 19.9 nM and the “Selectivity Ratio IC50(MCF-7)/ IC50(MCF-7/ADR)” value is on record as 235.0. Moreover, the Solubility in series [2] turned out to be 44.7 ± 10.2%.

As to `COc1cc(OCCOc2no[n+]([O-])c2S(=O)(=O)c2ccccc2)ccc1C(=O)CCc1ccc(F)cc1` [Compound 9c, 4-(2-(4-(3-(4-fluorophenyl)propanoyl)-3-methoxyphenoxy)ethoxy)-3-(phenylsulfonyl)-1,2,5-oxadiazole 2-oxide], the “Selectivity Ratio IC50(MCF-7)/ IC50(MCF-7/ADR)” value in series [1] came out at 137.1. Also, the Solubility in series [2] is on record as 40.8 ± 8.2%.

For `COc1cc(OCCOc2no[n+]([O-])c2S(=O)(=O)c2ccccc2)ccc1C(=O)NCc1ccc(C(F)(F)F)cc1` [Compound 18d, 4-(2-(3-methoxy-4-((4-(trifluoromethyl)benzyl)carbamoyl)phenoxy)ethoxy)-3-(phenylsulfonyl)-1,2,5-oxadiazole 2-oxide], in series [1], half-maximal inhibition (IC50) was put at 6.56 nM and the “Selectivity Ratio IC50(MCF-7)/ IC50(MCF-7/ADR)” value is 163.0. For the same compound, in series [2], the Solubility came to 26.2 ± 7.2%.

Turning to `COc1cc(OCCCOc2no[n+]([O-])c2S(=O)(=O)c2ccccc2)ccc1C(=O)/C=C/c1ccc(C#N)cc1` [Compound 6f, (E)-4-(3-(4-(3-(4-cyanophenyl)acryloyl)-3-methoxyphenoxy)propoxy)-3-(phenylsulfonyl)-1,2,5-oxadiazole 2-oxide], in series [1], the “Selectivity Ratio IC50(MCF-7)/ IC50(MCF-7/ADR)” value is 212.9. Also, in series [2], the Solubility is 67.2 ± 6.1%.

Consider `COc1cc(OCCOc2no[n+]([O-])c2S(=O)(=O)c2ccccc2)ccc1C(=O)/C=C/c1ccc(C#N)cc1` [Compound 6e, (E)-4-(2-(4-(3-(4-cyanophenyl)acryloyl)-3-methoxyphenoxy)ethoxy)-3-(phenylsulfonyl)-1,2,5-oxadiazole 2-oxide], for which, in series [1], the “Selectivity Ratio IC50(MCF-7)/ IC50(MCF-7/ADR)” value turned out to be 328.3. The same compound yielded a Solubility in series [2] of 21.2 ± 3.3%.
